Patent US20020111274A1, “1-alkyl-3-[1-(substituted phenyl) benzotriazol-6-yl] uracils” (BASF Aktiengesellschaft, priority 2000, published 2002)

How the values were obtained:
Design in all cases: scale not given here
CASOB Sicklepod [1] = test: Postemergence herbicidal evaluation, CASOB; format: in vivo, Cassia obtusifolia, L.; conditions: postemergence spray, rated about two-three weeks after treatment
Procedure, shortened: (§1)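 Plants are raised for roughly two weeks, then treated postemergence with compound dispersed in acetone/water (80/20) plus 1.0% seed oil adjuvant, at rates of about 0.006 kg to 0.400 kg per hectare. After greenhouse care, damage is scored two to three weeks later.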

GLXMAW Soybean, Williams [2] = test: Postemergence herbicidal evaluation, GLXMAW; format: in vivo, Glycine max, (L.) Merr. cv Williams; conditions: postemergence spray, rated about two-three weeks after treatment
Procedure, shortened: as §1

GALAP Galium [3] = test: Preemergence herbicidal evaluation, GALAP; format: in vivo, Galium aparine; conditions: preemergence
Procedure, shortened: (§2)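 Compound applied preemergence as an aqueous acetone spray onto freshly planted cups, dose equivalent approx. 0.013 to 0.800 kg/ha. Evaluation by rating at weeks 4–5.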

ZEAMX Corn, Field [4] = test: Postemergence herbicidal evaluation, ZEAMX; format: in vivo, Zea mays, L. (Sammel-Bezeichnung); conditions: postemergence spray, rated about two-three weeks after treatment
Procedure, shortened: as §1

ECHOG Barnyardgrass [5] = test: Postemergence herbicidal evaluation, ECHOG; format: in vivo, Echinochloa crus-galli, (L.) Beau; conditions: postemergence spray, rated about two-three weeks after treatment
Procedure, shortened: as §1

GALAP Galium [6] = test: Postemergence herbicidal evaluation, GALAP; format: in vivo, Galium aparine; conditions: postemergence spray, rated about two-three weeks after treatment
Procedure, shortened: as §1

CASOB Sicklepod [7] = test: Preemergence herbicidal evaluation, CASOB; format: in vivo, Cassia obtusifolia, L.; conditions: preemergence
Procedure, shortened: as §2

SETVI Foxtail, Green [8] = test: Preemergence herbicidal evaluation, SETVI; format: in vivo, Setaria viridis, (L.) Beau; conditions: preemergence
Procedure, shortened: as §2

ORYSAT Rice, Tebonnet [9] = test: Preemergence herbicidal evaluation, ORYSAT; format: in vivo, Oryza sativa, (L.); conditions: preemergence
Procedure, shortened: as §2

ECHOG Barnyardgrass [10] = test: Preemergence herbicidal evaluation, ECHOG; format: in vivo, Echinochloa crus-galli, (L.) Beau; conditions: preemergence
Procedure, shortened: as §2

[11] = test system: TRZAWR Wheat, Winter, cv Riband; test: Postemergence herbicidal evaluation, TRZAWR; format: in vivo, Triticum aestivum; conditions: postemergence spray, rated about two-three weeks after treatment
Procedure, shortened: as §1

AMBEL Ragweed, Common [12] = test: Preemergence herbicidal evaluation, AMBEL; format: in vivo, Ambrosia artemisifolia, L.; conditions: preemergence
Procedure, shortened: as §2

[13] = test system: IPOHE Morningglory, Ivyleaf; test: Postemergence herbicidal evaluation, IPOHE; format: in vivo, Ipomoea hederacea, (L.) Jacq.; conditions: postemergence spray, rated about two-three weeks after treatment
Procedure, shortened: as §1

ORYSAT Rice, Tebonnet [14] = test: Postemergence herbicidal evaluation, ORYSAT; format: in vivo, Oryza sativa, (L.); conditions: postemergence spray, rated about two-three weeks after treatment
Procedure, shortened: as §1

[15] = test system: CHEAL Lambsquarters, Common; test: Postemergence herbicidal evaluation, CHEAL; format: in vivo, Chenopodium album, L.; conditions: postemergence spray, rated about two-three weeks after treatment
Procedure, shortened: as §1

[16] = test system: CHEAL Lambsquarters, Common; test: Preemergence herbicidal evaluation, CHEAL; format: in vivo, Chenopodium album, L.; conditions: preemergence
Procedure, shortened: as §2

ZEAMX Corn, Field [17] = test: Preemergence herbicidal evaluation, ZEAMX; format: in vivo, Zea mays, L. (Sammel-Bezeichnung); conditions: preemergence
Procedure, shortened: as §2

SETVI Foxtail, Green [18] = test: Postemergence herbicidal evaluation, SETVI; format: in vivo, Setaria viridis, (L.) Beau; conditions: postemergence spray, rated about two-three weeks after treatment
Procedure, shortened: as §1

ABUTH Velvetleaf [19] = test: Preemergence herbicidal evaluation, ABUTH; format: in vivo, Abutilon theophrasti, Medic.; conditions: preemergence
Procedure, shortened: as §2

ABUTH Velvetleaf [20] = test: Postemergence herbicidal evaluation, ABUTH; format: in vivo, Abutilon theophrasti, Medic.; conditions: postemergence spray, rated about two-three weeks after treatment
Procedure, shortened: as §1

GLXMAW Soybean, Williams [21] = test: Preemergence herbicidal evaluation, GLXMAW; format: in vivo, Glycine max, (L.) Merr. cv Williams; conditions: preemergence
Procedure, shortened: as §2

[22] = test system: IPOHE Morningglory, Ivyleaf; test: Preemergence herbicidal evaluation, IPOHE; format: in vivo, Ipomoea hederacea, (L.) Jacq.; conditions: preemergence
Procedure, shortened: as §2

AMBEL Ragweed, Common [23] = test: Postemergence herbicidal evaluation, AMBEL; format: in vivo, Ambrosia artemisifolia, L.; conditions: postemergence spray, rated about two-three weeks after treatment
Procedure, shortened: as §1

[24] = test system: TRZAWR Wheat, Winter, cv Riband; test: Preemergence herbicidal evaluation, TRZAWR; format: in vivo, Triticum aestivum; conditions: preemergence
Procedure, shortened: as §2

SMILES: COC(=O)COc1ccccc1-n1nnc2cc(F)c(-n3c(=O)cc(C(F)(F)F)n(C)c3=O)cc21 [Example 35]
- Postemergence herbicidal rating CASOB (CASOB Sicklepod [1]; 0.008 kg/ha): 1.0
- Postemergence herbicidal rating CASOB (CASOB Sicklepod [1]; 0.016 kg/ha): 1.0
- Postemergence herbicidal rating CASOB (CASOB Sicklepod [1]; 0.032 kg/ha): 2.0
- Postemergence herbicidal rating CASOB (CASOB Sicklepod [1]; 0.062 kg/ha): 2.0
- Postemergence herbicidal rating GLXMAW (GLXMAW Soybean, Williams [2]; 0.008 kg/ha): 5.0
- Postemergence herbicidal rating GLXMAW (GLXMAW Soybean, Williams [2]; 0.016 kg/ha): 4.5
- Postemergence herbicidal rating GLXMAW (GLXMAW Soybean, Williams [2]; 0.032 kg/ha): 6.0
- Postemergence herbicidal rating GLXMAW (GLXMAW Soybean, Williams [2]; 0.062 kg/ha): 7.5
- GALAP herbicidal rating (GALAP Galium [3]; rate 0.016 kg/ha): 0.0
- GALAP herbicidal rating (GALAP Galium [3]; rate 0.032 kg/ha): 0.0
- GALAP herbicidal rating (GALAP Galium [3]; rate 0.062 kg/ha): 0.0
- GALAP herbicidal rating (GALAP Galium [3]; rate 0.125 kg/ha): 5.0
- Postemergence herbicidal rating ZEAMX (ZEAMX Corn, Field [4]; 0.008 kg/ha): 5.0
- Postemergence herbicidal rating ZEAMX (ZEAMX Corn, Field [4]; 0.016 kg/ha): 4.5
- Postemergence herbicidal rating ZEAMX (ZEAMX Corn, Field [4]; 0.032 kg/ha): 5.5
- Postemergence herbicidal rating ZEAMX (ZEAMX Corn, Field [4]; 0.062 kg/ha): 7.5
- Postemergence herbicidal rating ECHCG (ECHOG Barnyardgrass [5]; 0.008 kg/ha): 2.0
- Postemergence herbicidal rating ECHCG (ECHOG Barnyardgrass [5]; 0.016 kg/ha): 4.0
- Postemergence herbicidal rating ECHCG (ECHOG Barnyardgrass [5]; 0.032 kg/ha): 7.0
- Postemergence herbicidal rating ECHCG (ECHOG Barnyardgrass [5]; 0.062 kg/ha): 9.0
- Postemergence herbicidal rating GALAP (GALAP Galium [6]; 0.008 kg/ha): 1.0
- Postemergence herbicidal rating GALAP (GALAP Galium [6]; 0.016 kg/ha): 1.0
- Postemergence herbicidal rating GALAP (GALAP Galium [6]; 0.032 kg/ha): 3.0
- Postemergence herbicidal rating GALAP (GALAP Galium [6]; 0.062 kg/ha): 4.0
- CASOB herbicidal rating (CASOB Sicklepod [7]; rate 0.016 kg/ha): 0.0
- CASOB herbicidal rating (CASOB Sicklepod [7]; rate 0.032 kg/ha): 0.0
- CASOB herbicidal rating (CASOB Sicklepod [7]; rate 0.062 kg/ha): 4.0
- CASOB herbicidal rating (CASOB Sicklepod [7]; rate 0.125 kg/ha): 2.0
- SETVI herbicidal rating (SETVI Foxtail, Green [8]; rate 0.016 kg/ha): 0.0
- SETVI herbicidal rating (SETVI Foxtail, Green [8]; rate 0.032 kg/ha): 1.5
- SETVI herbicidal rating (SETVI Foxtail, Green [8]; rate 0.062 kg/ha): 6.5
- SETVI herbicidal rating (SETVI Foxtail, Green [8]; rate 0.125 kg/ha): 9.0
- ORYSAT herbicidal rating (ORYSAT Rice, Tebonnet [9]; rate 0.016 kg/ha): 0.0
- ORYSAT herbicidal rating (ORYSAT Rice, Tebonnet [9]; rate 0.032 kg/ha): 0.0
- ORYSAT herbicidal rating (ORYSAT Rice, Tebonnet [9]; rate 0.062 kg/ha): 3.5
- ORYSAT herbicidal rating (ORYSAT Rice, Tebonnet [9]; rate 0.125 kg/ha): 6.0
- ECHCG herbicidal rating (ECHOG Barnyardgrass [10]; rate 0.016 kg/ha): 0.0
- ECHCG herbicidal rating (ECHOG Barnyardgrass [10]; rate 0.032 kg/ha): 0.0
- ECHCG herbicidal rating (ECHOG Barnyardgrass [10]; rate 0.062 kg/ha): 2.0
- ECHCG herbicidal rating (ECHOG Barnyardgrass [10]; rate 0.125 kg/ha): 4.5
- Postemergence herbicidal rating TRZAWR ([11]; 0.008 kg/ha): 3.5
- Postemergence herbicidal rating TRZAWR ([11]; 0.016 kg/ha): 3.0
- Postemergence herbicidal rating TRZAWR ([11]; 0.032 kg/ha): 5.5
- Postemergence herbicidal rating TRZAWR ([11]; 0.062 kg/ha): 7.0
- AMBEL herbicidal rating (AMBEL Ragweed, Common [12]; rate 0.016 kg/ha): 0.0
- AMBEL herbicidal rating (AMBEL Ragweed, Common [12]; rate 0.032 kg/ha): 0.0
- AMBEL herbicidal rating (AMBEL Ragweed, Common [12]; rate 0.062 kg/ha): 3.5
- AMBEL herbicidal rating (AMBEL Ragweed, Common [12]; rate 0.125 kg/ha): 5.0
- Postemergence herbicidal rating IPOHE ([13]; 0.008 kg/ha): 9.0
- Postemergence herbicidal rating IPOHE ([13]; 0.016 kg/ha): 4.0
- Postemergence herbicidal rating IPOHE ([13]; 0.032 kg/ha): 9.0
- Postemergence herbicidal rating IPOHE ([13]; 0.062 kg/ha): 9.0
- Postemergence herbicidal rating ORYSAT (ORYSAT Rice, Tebonnet [14]; 0.008 kg/ha): 3.0
- Postemergence herbicidal rating ORYSAT (ORYSAT Rice, Tebonnet [14]; 0.016 kg/ha): 3.5
- Postemergence herbicidal rating ORYSAT (ORYSAT Rice, Tebonnet [14]; 0.032 kg/ha): 6.0
- Postemergence herbicidal rating ORYSAT (ORYSAT Rice, Tebonnet [14]; 0.062 kg/ha): 7.0
- Postemergence herbicidal rating CHEAL ([15]; 0.008 kg/ha): 1.0
- Postemergence herbicidal rating CHEAL ([15]; 0.016 kg/ha): 4.0
- Postemergence herbicidal rating CHEAL ([15]; 0.032 kg/ha): 6.0
- Postemergence herbicidal rating CHEAL ([15]; 0.062 kg/ha): 7.0
- CHEAL herbicidal rating ([16]; rate 0.016 kg/ha): 0.0
- CHEAL herbicidal rating ([16]; rate 0.032 kg/ha): 9.0
- CHEAL herbicidal rating ([16]; rate 0.062 kg/ha): 9.0
- CHEAL herbicidal rating ([16]; rate 0.125 kg/ha): 9.0
- ZEAMX herbicidal rating (ZEAMX Corn, Field [17]; rate 0.016 kg/ha): 0.0
- ZEAMX herbicidal rating (ZEAMX Corn, Field [17]; rate 0.032 kg/ha): 0.0
- ZEAMX herbicidal rating (ZEAMX Corn, Field [17]; rate 0.062 kg/ha): 1.0
- ZEAMX herbicidal rating (ZEAMX Corn, Field [17]; rate 0.125 kg/ha): 3.0
- Postemergence herbicidal rating SETVI (SETVI Foxtail, Green [18]; 0.008 kg/ha): 1.0
- Postemergence herbicidal rating SETVI (SETVI Foxtail, Green [18]; 0.016 kg/ha): 9.0
- Postemergence herbicidal rating SETVI (SETVI Foxtail, Green [18]; 0.032 kg/ha): 9.0
- Postemergence herbicidal rating SETVI (SETVI Foxtail, Green [18]; 0.062 kg/ha): 8.0
- ABUTH herbicidal rating (ABUTH Velvetleaf [19]; rate 0.016 kg/ha): 0.0
- ABUTH herbicidal rating (ABUTH Velvetleaf [19]; rate 0.032 kg/ha): 4.0
- ABUTH herbicidal rating (ABUTH Velvetleaf [19]; rate 0.062 kg/ha): 9.0
- ABUTH herbicidal rating (ABUTH Velvetleaf [19]; rate 0.125 kg/ha): 5.5
- Postemergence herbicidal rating ABUTH (ABUTH Velvetleaf [20]; 0.008 kg/ha): 5.0
- Postemergence herbicidal rating ABUTH (ABUTH Velvetleaf [20]; 0.016 kg/ha): 5.0
- Postemergence herbicidal rating ABUTH (ABUTH Velvetleaf [20]; 0.032 kg/ha): 9.0
- Postemergence herbicidal rating ABUTH (ABUTH Velvetleaf [20]; 0.062 kg/ha): 9.0
- GLXMAW herbicidal rating (GLXMAW Soybean, Williams [21]; rate 0.016 kg/ha): 1.0
- GLXMAW herbicidal rating (GLXMAW Soybean, Williams [21]; rate 0.032 kg/ha): 0.0
- GLXMAW herbicidal rating (GLXMAW Soybean, Williams [21]; rate 0.062 kg/ha): 1.5
- GLXMAW herbicidal rating (GLXMAW Soybean, Williams [21]; rate 0.125 kg/ha): 2.5
- IPOHE herbicidal rating ([22]; rate 0.016 kg/ha): 0.0
- IPOHE herbicidal rating ([22]; rate 0.032 kg/ha): 4.5
- IPOHE herbicidal rating ([22]; rate 0.062 kg/ha): 5.0
- IPOHE herbicidal rating ([22]; rate 0.125 kg/ha): 9.0
- Postemergence herbicidal rating AMBEL (AMBEL Ragweed, Common [23]; 0.008 kg/ha): 4.0
- Postemergence herbicidal rating AMBEL (AMBEL Ragweed, Common [23]; 0.016 kg/ha): 5.0
- Postemergence herbicidal rating AMBEL (AMBEL Ragweed, Common [23]; 0.032 kg/ha): 9.0
- Postemergence herbicidal rating AMBEL (AMBEL Ragweed, Common [23]; 0.062 kg/ha): 9.0
- TRZAWR herbicidal rating ([24]; rate 0.016 kg/ha): 0.0
- TRZAWR herbicidal rating ([24]; rate 0.032 kg/ha): 0.0
- TRZAWR herbicidal rating ([24]; rate 0.062 kg/ha): 1.0
- TRZAWR herbicidal rating ([24]; rate 0.125 kg/ha): 1.0
